Measurements from patent EP2961753B1, “STANNOUS FLUORESCENT PROBE” (priority 2014, dated 2015).

Tests used:
[1] = Metal ion sensing: fluorescence titration with Sn^2+ and selectivity against various metal ions; assay type: physicochemical; details: for fluorescence at 580 nm / fluorescence of the solution / selectivity on sensing Sn^2+: metal ions that turn fluorescence on: 20 µM in ethanol-water (1: 1, v/v, PH 7.04); for fluorescence at 580 nm: addition of Sn^2+ (0-20 eq); for fluorescence at 580 nm / selectivity on sensing Sn^2+: metal ions that turn fluorescence on / fluorescence enhancement by other transition and heavy metal ions: excitation 560 nm; for fluorescence of the solution: no metal ion added; for selectivity on sensing Sn^2+: metal ions that turn fluorescence on: various metal ions; for fluorescence enhancement by other transition and heavy metal ions: 20 µM, K^+, Ag^+, Ca^2+, Mg^2+, Zn^2+, Pb^2+, Ni^2+, Mn^2+, Co^2+, Cd^2+, Hg^2+
Procedure: Solutions of the metal ions (10.0 mM) are prepared in deionized water. A stock solutions of Compounds R1 and R2 (0.2 mM) are each prepared in ethanol and then diluted to 20 µM with ethanol-water (1: 1, v/v, pH 7.04) for spectral measurement. For titration experiments, a 2.0 mL solution of Compounds R1 and R2 (20 µM) are filled in a respective quartz optical cell of 1 cm optical path length. Sn^2+ stock solution is added into the quartz optical cell gradually by micro-pipette. Spectral data is recorded at 5 min after addition. In selectivity experiments, the test samples are prepared by placing appropriate amounts of metal ion stock into 2.0 mL solution of R1, R2 (20 µM). For fluorescence measurements, excitation is provided at 560 nm, while emission is collected from 565 to 700 nm.

[2] = pH titration of probe fluorescence; assay type: physicochemical; details: 10 µM in PBS, fluorescence at 580 nm, excitation 560 nm, no Sn^2+
Procedure: pH titration of Compounds R1 and R2 is described. Stock solutions of Compounds R1 and R2 are respectively added to sodium phosphate buffers of various pH to a final concentration of 10 µM. The fluorescence emission spectra are recorded as a function of pH using λex at 560 nm. The titration curves are plotted by fluorescence emission intensities at 580 nm versus pH.
The impact of pH values on fluorescence is described. The pirolactam ring of the rhodamine derivatives will open in a certain pH range and indicates the fluorescence of rhodamine. It is therefore necessary to check the fluorescence properties of Compounds R1 and R2 in solutions with different pH values. […] Considering the application of Sn^2+ probe R1 and R2 intracellular or extracellular may be disturbed by the pH, the acid-base titration experiments are carried out by adjusting the pH with an aqueous solution of NaOH and HCl in Phosphate-Buffered Saline ("PBS") (Fig.2 a and b). […] Figures 2a and 2b show the dependence of fluorescence at 580 nm of comparative Compound R1 and inventive Compound R2 (10 µM) at different pH in PBS solution. Excitation was at 560 nm.

Compound | fluorescence at 580 nm [1] | fluorescence of the solution [1] | selectivity on sensing Sn^2+: metal ions that turn fluorescence on [1] | fluorescence enhancement by other transition and heavy metal ions [1] | pH range for inducing fluorescence turning on [2]
CCN(CC)c1ccc2c(c1)Oc1cc(N(CC)CC)ccc1C21c2ccccc2C(=O)N1NC(=O)OC(C)(C)C [Compound R2] | turned on and grown drastically | non-fluorescent | tuning on just in the presence of Sn^2+ and Cr^3+ | minimal enhancement | 2-4.5
Spiro[1H-isoindole-1,9'-[9H]xanthen]-3(2H)-one, 2-[2-[bis(2-hydroxyethyl)amino]amino]ethyl]-3',6'-bis(diethylamino) [Compound R1] | turned on and grown drastically | non-fluorescent | tuning on just in the presence of Sn^2+ and Cr^3+ | minimal enhancement | 2.5-6
